In US20260034103A1, “COMPOSITIONS AND METHODS FOR IMPROVING MEMORY AND COGNITION” (priority 2022, published 2026):

Experiments:
Wistar rats = experiment: Novel object recognition test, subchronic PCP-induced cognitive impairment; assay type: in vivo, rat; settings: PCP 5 mg/kg twice daily for 7 days IP
Method: The total exploration time of two identical objects in the acquisition trial was measured manually and indicated as the mean±SEM (n=10). No statistical difference was found in the total exploration time among the different groups by one-way ANOVA (P=0.340).
NDI was calculated using the following equation: novel object interaction time/total interaction time×100(%). Data are represented as the mean±SEM (n=10). Significant difference from control group was indicated by ***P<0.001 (Student's t-test). Significant differences from PCP-treated group were indicated by ##P<0.01, #P<0.05 (Dunnett test). Significant difference from PCP-treated group were indicated by ††P<0.01 (Student's t-test).
Exploration time of each object in retention trial was measured manually and presented as the mean±SEM (n=10). Significant differences from familiar object interaction were indicated by ***P<0.001, **P<0.01 (paired t-test).
A novel object recognition test was conducted to investigate the effect of SP-624 on subchronic PCP-induced cognitive impairment in Wistar rats. Clozapine was used as a positive control.

Long-Evans rats = experiment: Novel object recognition test, scopolamine-induced cognitive impairment; assay type: in vivo, rat; settings: scopolamine 0.1 mg/kg SC
Method: Total exploration time of two identical objects in the acquisition trial was measured manually and indicated as the mean±SEM (n=8). No statistical difference was found in the total exploration time among the different groups by one-way ANOVA (P=0.115).
NDI was calculated using the following equation: novel object interaction time/total interaction time×100(%). Data are represented as the mean±SEM (n=8). Significant difference from control group was indicated by ***P<0.001 (Student's t-test). Significant differences from scopolamine-treated vehicle group were indicated by ##P<0.01 (Dunnett test). Significant difference from scopolamine-treated vehicle group were indicated by †††P<0.001 (Student's t-test).
Exploration time of each object in retention trial was measured manually and presented as the mean±SEM (n=8). Significant differences from familiar object interaction were indicated by **P<0.01, *P<0.05 (paired t-test).
A novel object recognition test (which evaluates visual learning and memory) was conducted to investigate the effect of compound 1 on scopolamine-induced cognitive impairment in Long-Evans rats. Donepezil was used as a positive control. Scopolamine at 0.1 mg/kg SC reduced the novelty discrimination index (NDI) a measure of cognitive function (FIGS. 4-6).

Row | Compound | NDI compared with sub-chronic vehicle treatment (Wistar rats) | novelty discrimination index (NDI) (Long-Evans rats)
1 | c1ccc(C2(N3CCCCC3)CCCCC2)cc1 [PCP, reference compound] | significantly decreased | 
2 | CN1[C@@H]2C[C@@H](OC(=O)[C@H](CO)c3ccccc3)C[C@H]1[C@@H]1O[C@@H]12 [Scopolamine, reference compound] |  | reduced
